Data as given in the NIST ThermoML archive (doi:10.1021/je100909b).

Experiment: mn = molality of the nth substance listed, in mol/kg
Settings: 101 kPa, Liquid; for mass density: Vibrating tube method

CC(C)C[C@H](N)C(=O)O [L-leucine] + O
speed of sound [m/s], Sing-around technique in a fixed-path interferometer
Settings	m1 = 0.01941	m1 = 0.02155	m1 = 0.0281	m1 = 0.03296	m1 = 0.04083	m1 = 0.05231	m1 = 0.06632	m1 = 0.07033
288.15 K	–	1468.6	1469.5	1470.1	1471.1	–	1474.4	1475
298.15 K	1498.8	–	1499.9	1500.5	–	1502.7	1504.4	–
308.15 K	–	–	–	1523.2	1524.1	1525.2	1526.7	1527.1
318.15 K	–	–	1539.1	1539.5	1540.2	1541.3	1542.6	1543

Settings	viscosity [mPa·s]
288.15 K, m1 = 0.01977	1.151
288.15 K, m1 = 0.02401	1.153
288.15 K, m1 = 0.03189	1.158
288.15 K, m1 = 0.04067	1.163
288.15 K, m1 = 0.04511	1.166
288.15 K, m1 = 0.0503	1.169
298.15 K, m1 = 0.02228	0.9009
298.15 K, m1 = 0.03694	0.9076
298.15 K, m1 = 0.04045	0.9094
298.15 K, m1 = 0.05353	0.9156
298.15 K, m1 = 0.06724	0.9222
298.15 K, m1 = 0.08113	0.928
308.15 K, m1 = 0.0193	0.7262
308.15 K, m1 = 0.02231	0.7271
308.15 K, m1 = 0.03116	0.7301
308.15 K, m1 = 0.03988	0.7332
308.15 K, m1 = 0.04441	0.7347
308.15 K, m1 = 0.05005	0.7366
318.15 K, m1 = 0.01898	0.6012
318.15 K, m1 = 0.02214	0.602
318.15 K, m1 = 0.03098	0.6043
318.15 K, m1 = 0.03968	0.6064
318.15 K, m1 = 0.04439	0.6076
318.15 K, m1 = 0.04995	0.6092

CC(C)[C@H](N)C(=O)O [L-valine] + O
speed of sound [m/s], Sing-around technique in a fixed-path interferometer
Settings	m1 = 0.0197	m1 = 0.03559	m1 = 0.04365	m1 = 0.05244	m1 = 0.0586	m1 = 0.07142	m1 = 0.08303
288.15 K	–	1469.6	1470.5	1471.4	1472	1473.4	1474.6
298.15 K	–	1500.1	1500.9	1501.7	1502.3	1503.6	1504.7
308.15 K	–	1523	1523.8	1524.6	1525.1	1526.3	1527.3
318.15 K	1538.1	–	1540	1540.7	1541.2	1542.3	1543.2

Settings	viscosity [mPa·s]
288.15 K, m1 = 0.02209	1.15
288.15 K, m1 = 0.03342	1.157
288.15 K, m1 = 0.04176	1.161
288.15 K, m1 = 0.04553	1.163
288.15 K, m1 = 0.0505	1.166
288.15 K, m1 = 0.05576	1.169
298.15 K, m1 = 0.02235	0.8987
298.15 K, m1 = 0.03324	0.9027
298.15 K, m1 = 0.04271	0.9064
298.15 K, m1 = 0.04775	0.9082
298.15 K, m1 = 0.05319	0.9101
298.15 K, m1 = 0.05741	0.9118
308.15 K, m1 = 0.02114	0.7258
308.15 K, m1 = 0.03147	0.7288
308.15 K, m1 = 0.04157	0.7319
308.15 K, m1 = 0.04549	0.7331
308.15 K, m1 = 0.04791	0.7337
308.15 K, m1 = 0.05464	0.7358
318.15 K, m1 = 0.02149	0.6014
318.15 K, m1 = 0.03166	0.6038
318.15 K, m1 = 0.04179	0.6061
318.15 K, m1 = 0.04524	0.6068
318.15 K, m1 = 0.0474	0.6073
318.15 K, m1 = 0.05407	0.609

[Cl][Cd][Cl] [cadmium chloride] + O
Settings	mass density [kg/m3]	speed of sound [m/s]	viscosity [mPa·s]
288.15 K, m1 = 0.1	1015.69	1479	1.144
288.15 K, m1 = 0.5	1077.05	1484	1.223
288.15 K, m1 = 1	1149.37	1492.8	1.334
288.15 K, m1 = 1.5	1205.71	1496.2	1.472
298.15 K, m1 = 0.1	1012.89	1501.6	0.926
298.15 K, m1 = 0.5	1072.65	1507.2	1.036
298.15 K, m1 = 1	1140.72	1511.4	1.16
298.15 K, m1 = 1.5	1199.85	1514.4	1.226
308.15 K, m1 = 0.1	1009.59	1522.4	0.7258
308.15 K, m1 = 0.5	1068.5	1525.2	0.8259
308.15 K, m1 = 1	1135.37	1527.4	0.9138
308.15 K, m1 = 1.5	1193.02	1530.2	0.9824
318.15 K, m1 = 0.1	1005.51	1538.6	0.6097
318.15 K, m1 = 0.5	1063.8	1541.8	0.6739
318.15 K, m1 = 1	1129.17	1543.2	0.7467
318.15 K, m1 = 1.5	1186	1546.2	0.8197

O [water] + [Cl][Cd][Cl]
m2 = 0
Settings	viscosity [mPa·s]
288.15 K	1.138
298.15 K	0.8903
308.15 K	0.7195
318.15 K	0.5963
